Laboratory results reported in patent US4330550A, “Oxoimidazolinealkanoic acids and their salts and esters, their preparation and pharmaceutical compositions containing them” (A. Nattermann & Cie. GmbH, priority 1979, dated 1982).
Structures can show the parent of a compound that is named as a salt.

tested on: collagen-induced aggregation of platelets (human plasma with a high platelet content); assay: Inhibition of collagen-induced aggregation of thrombocytes in vitro (method of Born); assay type: cell-based; settings: 0.3 μmol/ml
Description: The aggregation of platelets in the presence of the compounds of the invention has been tested by the collagen-induced aggregation method of Born., Nature 4832/927, 29 (1962). The effect of the compounds in inhibiting thrombocyte aggregation was investigated in vitro on human plasma with a high platelet content.
The percentage inhibition of collagen-induced aggregation in vitro by compounds from the Examples indicated in Table 3, or combinations thereof with heparin, at a final concentration of 0.3 or 0.6 μmol of compound per ml of human plasma with a high platelet content, can be seen from the following Table.

SMILES | % inhibition compared with the control (collagen-induced aggregation) [%]
O=C(O)CCCCCCn1c(-c2ccccc2)c[nH]c1=O [Example 2c] | 46
O=C(O)CCCCCCCn1c(-c2ccccc2)c[nH]c1=O [Example 1c, sodium salt of 8-(2-oxo-5-phenyl-4-imidazolin-1-yl)-caprylic acid] | 80
O=C(O)CCCCCCn1c(-c2ccc(Cl)cc2)c[nH]c1=O [Example 5c] | 63
